Data set [1] in a line: In vitro metabolic stability in liver microsomes, rat. It is filed as in vitro ADME. The conditions noted are these: for microsomal CLint at 2 µM: pH 7.3, read-out: CLint (µL/min/mg protein) rat. As for the experimental part:
(§1) Example D: In Vitro Metabolic Stability of Human and Rat Liver Microsomes Test Buffer Preparation
(§2) Dissolve 1900 mg of MgCl2 in 400 mL of ultrapure water.
(§3) Dissolve 17.42 g K2HPO4 and 13.65 g KH2PO4 into 1000 mL of ultrapure water, respectively. Mix a certain proportion of K2HPO4 and KH2PO4 to adjust the pH to 7.30 ± 0.10.
(§4) Prepare a solution of 10 ng/mL labetalol and 10 ng/mL glyburide in acetonitrile and store at 4° C.
(§5) Prepare 10 mM verapamil (positive control) and test article stock solutions in DMSO. Then, with MeOH/ACN/H2O solution (1:1:2 by volume), diluted to 50 µM and 200 µM working solutions, respectively.
(§6) experiment procedure: • 1) Add 40 µL MgCl2 and 306 µL PBS to 96 wells (set blank control group, positive control group, test compound sample group, and negative control group at the same time) • 2) Add 4 µL of compound working solution to each well (4 µL of PBS buffer for blank group) (Note: the final concentration of DMSO volume in the system is ≤ 0.5%) • 3) Add 10 µL of liver microsomes (concentration: 20 mg/mL) to each well, mix well, and pre-incubate at 37° C. for 10 minutes. • 4) Add 40 µL of 10 mM NADPH working solution to each well to start the reaction (add equal volume of PBS buffer for blank control group and negative control group respectively), the total reaction volume is 400 µL. • 5) Take out 50 µL samples from the above reaction solution at 0, 5, 15, and 45 minutes, and add 400 µL of reaction stop solution to stop the reaction • 6) Shake the sample after the termination of the reaction on a shaker for 5 minutes. • 7) Centrifuge the sample at 3200 rcf for 10 minutes. After the centrifugation is complete, transfer 50 µL of the supernatant to 200 µL of H2O for dilution for LC-MS/MS analysis.
(§7) Calculations of t½ and CLint are performed using the first-order kinetic equations: […]
(§8) where k represents the elimination constant, calculated from a log-linear plot of percentage remaining versus time. t½ represents half-life. Cprotein is the concentration of liver microsomes.
Background: Liver microsomes are a subcellular fraction often used to study metabolism.

A short description of data set [2]: In vitro metabolic stability in liver microsomes, dog. The note with it: for microsomal CLint at 2 µM: dog, microsomes, pH 7.3. Type of data set: in vitro ADME.
A short description of data set [3]: In vitro metabolic stability in liver microsomes, human. It is filed as in vitro ADME. The note with it: for microsomal CLint at 2 µM: pH 7.3, read-out: CLint (µL/min/mg protein) human. As for the experimental part:
as §1, §2, §3, §4, §5, §6, §7, §8

Data set [4] can be described thus: In vitro metabolic stability in liver microsomes, monkey. Type of data set: in vitro ADME. The note with it: for microsomal CLint at 2 µM: pH 7.3, read-out: CLint (µL/min/mg protein) monkey.
Data set [5] can be described thus: In vitro metabolic stability in liver microsomes, mouse. The note with it: for microsomal CLint at 2 µM: pH 7.3, read-out: CLint (µL/min/mg protein) mouse. It is filed as in vitro ADME.
The subject of a further data set is leukemia cells MV-4-11. Kind of data set: Cell proliferation assay, CELL TITER-GLO (CTG) luminescence, MV-4-11. It is filed as cell-based. As for the experimental part: (§9) Example B: Cell Proliferation Assay
(§10) The effects of the compounds of the invention on the proliferation of leukemia cells MV-4-11 and lung cancer cells NCI-H358 were evaluated using in vitro cell assays. The detection method used in the experiment is the CELL TITER-GLO (CTG) luminescence method, which can detect the number of viable cells by quantifying ATP. Because ATP participates in a variety of enzymatic reactions in vivo, it is an indicator of the metabolism of living cells, and its content directly reflects the number and state of cells. During the experiment, CellTiter-Glo™ reagent was added to the cell culture medium to measure the luminescence value. The value is proportional to the amount of ATP, and ATP is positively related to the number of living cells, so the cell viability can be examined by detecting the ATP content.
(§11) experiment procedure: • (1) Cell plating: • Take a bottle of MV-4-11 cells in logarithmic growth phase, resuspend the cells by centrifugation and count them. After adjusting the cell density, they were seeded into a 96-well plate (Corning #3917). After culturing in a 5% CO2 incubator for 24 hrs, the compound of the present invention was added for treatment; • Take a bottle of NCI-H358 cells in logarithmic growth phase, digest and resuspend the cells, count them, adjust the cell density, and inoculate them into a 96-well transparent ultra-low adsorption cell culture plate (Corning #3474), inoculate 2000 cells per well. The plate was placed in an incubator at 37° C. and 5% CO2 for 24 hrs, and then the compound of the present invention was added for treatment; • (2) Cell compound treatment: • An appropriate amount of the compound of the present invention was prepared for cell treatment. The final concentration of the compound from high to low was 1000 nM, 333.3 nM, 111.1 nM, 37.04 nM, 12.35 nM, 4.115 nM, 1.372 nM, 0.4572 nM, 0.1524 nM, and 0 nM. The plate was placed in a 37° C., 5% CO2 incubator for 120 hrs. Only adding medium without cell wells was set as the blank group; the group with compound concentration of 0 nM was the zero-adjusting group. • (3) CTG detection: • After NCI-H358 cells were cultured for 96 hrs, 50 µL of CellTiter-Glo® Luminescent Cell Viability Assay solution was added to each well, shaken gently for 2 mins, and incubated at room temperature for 10 mins. The cell reaction system was transferred to a white-bottomed 96-well plate. Read the detection value of each well on a multi-function microplate reader. • After MV-4-11 cells were cultured for 120 hrs, 50 µL of CellTiter-Glo® Luminescent Cell Viability Assay solution was added to each well, gently shaken for 2 mins, and incubated at room temperature for 10 mins. Check the value. • (4) Data analysis: • Calculate the inhibition rate from the luminescence value readings, • [formula]
(§12) The log(inhibitor) vs. response-Variable slope of GraphPad Prism was fitted to dose-response curves and IC50s of compounds that inhibited cell proliferation were calculated.
Background: Cellular ATP, detected with luciferase, serves as a proxy for viable cell number.

For data set [6], the system named is lung cancer cells NCI-H358. The data set is described as follows: Cell proliferation assay, CELL TITER-GLO (CTG) luminescence, NCI-H358. Type of data set: cell-based. The conditions noted are these: cultured for 96 hrs. As for the experimental part: as §9, §10, §11, §12
For another data set, the target named is SHP2 (Homo sapiens (Human), UniProt Q06124). Kind of data set: SHP2 allosteric inhibitory enzyme activity assay (DiFMUP fluorescence). Type of data set: biochemical. The conditions noted are these: read-out: SHP2 enzymatic activity IC50. From the text:
Example A: SHP2 Allosteric Inhibitory Enzyme Activity Assay
SHP2 is allosterically activated by binding of a bis-tyrosyl-phosphorylated peptide to its Src homology 2 (SH2) domain. This later activation step results in the release of the autoinhibitory interface of SHP2, which in turn activates the SHP2 protein tyrosine phosphatase (PTP) and is available for substrate recognition and reaction catalysis. The catalytic activity of SHP2 was monitored using the surrogate DiFMUP in a rapid fluorescence assay format.
experiment procedure: • (1) Compound preparation: • The compounds of the present invention (10 mM stock solution) were diluted to appropriate times with 100% DMSO, and the final test concentrations of the compounds of the present invention were 10 µM, 3.3333 µM, 1.1111 µM, 0.3704 µM, 0.1235 µM, 0.0412 µM, 0.0137 µM, 0.0046 µM, 0.0015 µM, 0.00 µM; • (2) Prepare the enzyme reaction working solution: • Perform SHP2 enzymatic assays in 96-well black polystyrene plates (flat bottom, low flange, non-binding surface) (Perki Elmer, Cat#6005270) at room temperature using a final reaction volume of 50 µL and the following assay buffer conditions: 60 mM HEPES, 75 mM NaCl, 75 mM KCl, 0.05% BRIJ-35, 1 mM EDTA, 5 mM DTT. • (3) Enzyme-catalyzed reaction and data monitoring: • Add the compound of the present invention to the corresponding 96-well plate, and set the blank test well without compound and enzyme only with buffer. Thaw SHP2 Activating Peptide (IRS1_pY1172(dPEG8)pY1222) on ice, add 25 µM to each well, then add 0.2 ng of SHP2 protein sample to the corresponding well plate and incubate at room temperature for 1 hour. The surrogate substrate DiFMUP (Invitrogen, Cat #D6567) was added to the reaction and allowed to react for 1 hour at room temperature. Fluorescence signals were monitored using a microplate reader (Envision, Perki Elmer) using excitation and emission wavelengths of 340 nm and […], respectively. • (4) Data analysis: • Calculation Formula: • [formula]
Among them: Conversion_sample is the conversion rate reading of the sample; Conversion_min is the average value of blank control wells, representing the conversion rate readings of wells without enzymatic activity; Conversion_max is the mean ratio of positive control wells, representing the conversion rate readings of wells without compound inhibition. The log(inhibitor) vs. response-Variable slope of the analysis software GraphPad Prism was used to fit the dose-response curve, and the IC50 value of the compound for the enzymatic activity was calculated.

Where [7] appears, read: Homo sapiens, MV4-11, cultured for 120 hrs.
The mark [8] stands for this setting: Homo sapiens, NCI-H358, ultra-low adsorption plate.

Sequence of SHP2 (Q06124 whole entry): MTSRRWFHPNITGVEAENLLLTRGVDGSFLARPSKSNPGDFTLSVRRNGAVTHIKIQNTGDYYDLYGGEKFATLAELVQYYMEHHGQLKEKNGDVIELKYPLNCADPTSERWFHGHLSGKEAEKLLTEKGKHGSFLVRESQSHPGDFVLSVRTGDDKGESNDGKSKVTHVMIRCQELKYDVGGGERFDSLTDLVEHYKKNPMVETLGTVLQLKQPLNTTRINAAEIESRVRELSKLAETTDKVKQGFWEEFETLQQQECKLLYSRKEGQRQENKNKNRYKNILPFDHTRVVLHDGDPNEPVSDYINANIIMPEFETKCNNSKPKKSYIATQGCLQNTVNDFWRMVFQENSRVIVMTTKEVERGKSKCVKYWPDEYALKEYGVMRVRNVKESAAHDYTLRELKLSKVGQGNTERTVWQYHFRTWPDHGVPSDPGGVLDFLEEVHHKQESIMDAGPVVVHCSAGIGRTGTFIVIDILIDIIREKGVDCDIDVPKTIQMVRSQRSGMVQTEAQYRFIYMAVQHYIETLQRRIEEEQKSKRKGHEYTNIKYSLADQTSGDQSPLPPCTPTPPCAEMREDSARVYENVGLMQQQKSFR

For `Nc1ncc(OCC#Cc2cnc(N3CCC4(CC3)Cc3ccccc3[C@H]4N)c(CO)n2)cn1` [Compound A19, (S)-(3-(1-amino-1,3-dihydrospiro[indene-2,4′-piperidin]-1′-yl)-6-(3-( (2-Aminopyrimidine-5-yl)oxy)prop-1-yn-1-yl)pyrazin-2-yl)methanol], the microsomal CLint at 2 µM in data set [1] was 31.6 µL/min/mg; in data set [2] it was 18.3 µL/min/mg; in data set [3], 8.2 µL/min/mg; in data set [4], 21.2 µL/min/mg; in data set [5] it was 21.4 µL/min/mg.
Take “(S)-4-((3-(5-(1-amino-1,3-dihydro spiro[indene-2,4′-piperidin]-1′-yl)-6-(hydroxymethyl)pyrazin-2-yl)pr op-2-yn-1-yl)oxy)-N-picoline amide [Compound A40]”: in data set [1], the “CLint (µL/min/mg protein) rat” value came to 11.7 µL/min/mg protein. Further, in data set [2] (dog liver microsomes), the “CLint (µL/min/mg protein) dog” value is 7.8 µL/min/mg protein. In addition, the “CLint (µL/min/mg protein) human” value in data set [3] turned out to be 11.0 µL/min/mg protein. In addition, in data set [4], the “CLint (µL/min/mg protein) monkey” value was 15.5 µL/min/mg protein. Also, in data set [5], the “CLint (µL/min/mg protein) mouse” value is listed as 11.0 µL/min/mg protein.
One may read the IC50 as the point on the concentration scale where inhibition reaches its midpoint. Turning to `CC(=O)Nc1ccc(OCC#Cc2cnc(N3CCC4(CC3)Cc3ccccc3[C@H]4N)c(CO)n2)cc1` [Compound A08, (S)-N-(4-((3-(5-(1-amino-1,3-dihydrospiro [indene-2,4′-piperidine]-1′-yl) -6-(hydroxymethyl)pyrazin-2-yl)prop-2-yn-1-yl)oxy)phenyl) acetamide], the IC50 in the data set with leukemia cells MV-4-11 (setting [7]) was 2.1 nM; in data set [6] (setting [8]), 3.8 nM; on SHP2, 3.3 nM.
`N[C@@H]1c2ccccc2CC12CCN(c1ncc(C#CCOc3ccc(C(F)(F)F)cc3)nc1CO)CC2` [Compound A14, (S)-(3-(1-amino-1,3-dihydrospiro[indene-2,4′-piperidin]-1′-yl)-6-(3-(4-(trifluoromethyl)phenoxy)prop-1-yn-1-yl)pyrazin-2-yl)methanol]: the microsomal CLint at 2 µM in data set [1] came out at 1.8 µL/min/mg; in data set [2], 7.8 µL/min/mg; in data set [3], 1.4 µL/min/mg; in data set [4], 3.1 µL/min/mg; in data set [5], 6.4 µL/min/mg.
Take `CC(=O)Nc1cccc(NCC#Cc2cnc(N3CCC4(CC3)Cc3ccccc3[C@H]4N)c(CO)n2)c1` [Compound A65, (S)-N-(3-((3-(5-(1-amino-1,3-dihydrospiro[indene-2,4′-piperidin]-1′-yl)-6-(hydroxylmethyl)pyrazin-2-yl)prop-2-yn-1-yl)amino)phenyl)a cetamide]: the IC50 with leukemia cells MV-4-11 (setting [7]) was determined as 2.8 nM; in data set [6] (setting [8]), 25 nM; at SHP2 it was 3.5 nM.
For the molecule `COc1ccc(NCC#Cc2cnc(N3CCC4(CC3)Cc3ccccc3[C@H]4N)c(CO)n2)cc1OC` [Compound A47, (S)-(3-(1-amino-1,3-dihydrospiro [indene-2,4′-piperidin]-1′-yl)-6-(3-((3,4-dimethoxyphenyl)amino)prop-1-yn-1-yl)pyrazin-2-yl)], the 50% inhibitory concentration (IC50) with leukemia cells MV-4-11 (cultured for 120 hrs) came out at 17 nM; in data set [6] (ultra-low adsorption plate), 48 nM; on SHP2, 4 nM.
Consider `N[C@@H]1c2ccccc2CC12CCN(c1ncc(C#CCOc3ccc(C(=O)NC4CC4)cc3)nc1CO)CC2` [Compound A76, (S)-4-((3-(5-(1-amino-1,3-dihydrospiro[indene-2,4′-piperidin]-1′-yl)-6-(hydroxymethyl)pyrazin-2-yl)prop-2-yn-1-yl)oxy)-N-cyclopropyl benzamide], for which the IC50 is 3.3 nM in the data set on leukemia cells MV-4-11 (cultured for 120 hrs), 19 nM in data set [6] (ultra-low adsorption plate) and 3.4 nM at SHP2.
For `N[C@@H]1c2ccccc2CC12CCN(c1ncc(C#CCNc3ccccc3)nc1CO)CC2` [Compound A07, (S)-(3-(1-amino-1,3-dihydrospiro [indene-2,4′-piperidine]-1′-yl)-6-(3-(phenylamino)prop-1-yn-1-yl)pyrazin-2-yl) methanol], the IC50 with leukemia cells MV-4-11 (setting [7]) came out at 5.5 nM; in data set [6] (setting [8]) it was 12 nM; on SHP2, 2.5 nM.
Consider `COc1ccc2c(c1)[C@@H](N)C1(CCN(c3ncc(C#CCOc4ccc(C(N)=O)cc4)nc3CO)CC1)C2` [Compound A58, (S)-4-((3-(5-(1-amino-6-methoxy-1,3-dihydrospiro[indene-2,4′-piperidin]-1′-yl)-6-(hydroxymethyl)pyrazin-2-yl)prop-2-yn-1-yl)oxy)benzamide], for which the concentration for half-maximal inhibition (IC50) came out at 0.8 nM in the data set with leukemia cells MV-4-11 (setting [7]), 4 nM in data set [6] (setting [8]) and 1.5 nM on SHP2.

Source of the values: US20230339882A1, “SHP2 INHIBITOR AND COMPOSITION AND APPLICATION THEREOF” (Betta Pharmaceuticals Co., Ltd., priority 2020, published 2023).
